Test results: patent publication EP0162576A1, “Ethanolamine compounds” (GLAXO GROUP LIMITED, priority 1984, dated 1985)
Where a name gives a salt, the structure may show the parent alone.

Assays:
[1] = target: T1, β2-adrenoreceptors (Cavia porcellus, UniProt Q8K4Z4); assay: Guinea-pig tracheal strip preparation (relaxation of PGF2a-contracted trachea); type: cell-based; details: equipotent concentration = EC50 test compound / EC50 isoprenaline; tracheal rings contracted with prostaglandin F2a (2.9x10^-6M), 37°
T1 construct: from tissue; host or cells: isolated guinea-pig trachea (tracheal rings)
Method: The compounds according to the invention have a selective stimulant action at P2-adrenoreceptors, which furthermore is of a particularly advantageous profile. […] Compounds according to the invention have shown a particularly long duration of action in this test.
The stimulant action at β2-adrenoreceptors of compounds of the invention was determined using the following:
GUINEA-PIG TRACHEAL STRIP PREPARATION
Tracheal rings were mounted in a superfusion apparatus, and continuously superfused with oxygenated physiological (Kreb's) solution containing indomethacin (2.4x10 ^6M) and atropine (4x10^-7M) at 37° at a rate of 2ml/min. Changes in tension of the preparation were measured using an isometric strain gauge. Preparations were contracted for the duration of the test by the inclusion of prostaglandin F2a (2.9x10^-6M) in the superfusion fluid. Two bolus dose-effect curves to the standard, isoprenaline, (1x10^-12-1x10^-9 moles) were obtained at the start of each test in a cumulative fashion, allowing the relaxation obtained with each to reach its own maximum before the next increment was made. On completion of this dose-effect curve, sufficient time was allowed for the tissue to recover (15-30min). After this time, sequential concentration-effect curves were constructed for first isoprenaline and then the test compound. These were constructed as follows: a low concentration (isoprenaline 3x10-^10M; test compound 1x10^-10M) was infused until any response obtained had reached its maximum, then the infusion was stopped and the tissue allowed to recover for a maximum of 30min. After this period the procedure was repeated using progressively increasing concentrations of agonist, and in this way, whole concentration-effect curves obtained. Potency was determined by comparison of the concentration-effect curve thus constructed with that previously obtained for isoprenaline and expressed as equipotent concentration (isoprenaline = 1) i.e. EC50 test compound was calculated.
Duration of action was also measured for each response, and is the time taken from stopping the infusion to 50% recovery. Graphs were drawn for duration times against response magnitude, and from these, duration times for 50% maximum responses were determined.

[2] = tested on: guinea pigs; assay: Oral administration to guinea pigs, adverse effects; type: in vivo; details: administered orally to guinea pigs at a dose of 5mg/kg
Text: In general, the compounds according to the invention are non-toxic at therapeutically useful doses.

T1 sequence (Q8K4Z4 whole entry): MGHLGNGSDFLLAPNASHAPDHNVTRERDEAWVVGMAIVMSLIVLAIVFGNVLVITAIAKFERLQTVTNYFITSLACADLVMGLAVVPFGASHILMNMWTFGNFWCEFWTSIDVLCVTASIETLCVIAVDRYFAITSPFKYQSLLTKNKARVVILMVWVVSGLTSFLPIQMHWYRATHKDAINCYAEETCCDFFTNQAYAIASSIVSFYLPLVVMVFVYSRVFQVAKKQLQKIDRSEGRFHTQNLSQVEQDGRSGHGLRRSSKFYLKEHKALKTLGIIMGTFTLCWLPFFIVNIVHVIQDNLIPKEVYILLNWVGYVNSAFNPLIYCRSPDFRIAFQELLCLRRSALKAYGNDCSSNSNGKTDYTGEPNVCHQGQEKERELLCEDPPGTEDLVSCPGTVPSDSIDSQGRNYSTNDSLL

COc1ccc(CCOCCCCCCNCC(O)c2ccc(O)c(O)c2)cc1 (stereo not drawn) [Example 17, 4-[l-Hydroxy-2-[[6-[2-(4-methoxyphenyl)ethoxy]hexyl]amino]ethyl]-1,2-benzenediol]
Potency (Isoprenaline = 1) [1]: 0.6

Oc1cc(O)cc(C(O)CNCCCCCCOCCCCc2ccccc2)c1 (stereo not shown) [Example 10, 5-[1-Hydroxy-2-[[6-(4-phenylbutoxy)hexyl]amino]ethyl]-1,3-benzenediol]
adverse effects [2]: no adverse effects

CC(CCCCCOCCc1ccccc1)NCC(O)c1ccc(O)c2[nH]c(=O)ccc12 (stereo not shown) [Example 6, 8-Hydroxy-5-[1-hydroxy-2-[[1-methyl-6-(2-phenylethoxy)hexyl]amino]ethyl]-2(1H)-quinolinone]
Potency (Isoprenaline = 1) [1]: 0.16 | adverse effects [2]: no adverse effects

CC(CCCCCOCCc1ccc(F)cc1)NCC(O)c1cc(O)cc(O)c1 (stereo not shown) [Example 14, 5-[2-[[6-[2-(4-Fluorophenyl)ethoxy]-1-methylhexyl]amino]-1-hydroxyethyl]-1,3-benzenediol, benzoate (salt)]
Potency (Isoprenaline = 1) [1]: 0.13

CC(CCCCCOCCc1ccccc1)NCC(O)c1ccc(O)c(CCO)c1 (stereo not shown) [Example 5, 2-Hydroxy-5-[1-hydroxy-2-[[1-metlayl-6-(2-phenylethoxy)hexyl]amino]ethyl]benzeneethanol hydrochloride (4:3)]
Potency (Isoprenaline = 1) [1]: 0.17

CC(CCCCCOCCc1ccccc1)NC[C@H](O)c1ccc(O)c(O)c1 (stereo partly drawn) [Example 8, (1R)-4-[1-Hydroxy-2-[1-methyl-6-(2-phenylethoxy)hexyl]amino]ethyl-1,2-benzenediol.]
Potency (Isoprenaline = 1) [1]: 0.4 | adverse effects [2]: no adverse effects

Oc1ccc(C(O)CNCCCCCCOCCCCc2ccccc2)cc1O (stereo not shown) [Example 7, 4-[1-Hydroxy-2-[[6-(4-phenylbutoxy)hexyl]amino]ethyl]-1,2-benzenediol]
adverse effects [2]: no adverse effects

CC(CCCCCOCCc1ccccc1)NCC(O)c1cc(O)cc(O)c1 (stereo not shown) [Example 12, 5-[1-Hydroxy-2-[[1-methyl-6-(2-phenylethoxy)hexyl]amino]ethyl]-1,3-benzenediol benzoate (salt)]
Potency (Isoprenaline = 1) [1]: 0.15
